From US20150105252A1, “SUBSTITUTED PYRAZOLES AS HERBICIDES” (E I DU PONT DE NEMOURS AND COMPANY, priority 2013, published 2015)

Tests used:
[1] = system: Italian ryegrass; assay: Test A preemergence; assay type: in vivo, Lolium multiflorum
Summary of the method: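 After sowing in a sand–loam mix, pots received compound preemergence by directed soil spray, or postemergence once plants reached the one- to two-leaf stage (2–10 cm). Formulation contained surfactant in a non-phytotoxic solvent. Injury was scored visually after ~10 greenhouse days, 0–100 scale.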

[2] = system: Surinam grass; assay: Test F preemergence; assay type: in vivo, Brachiaria decumbens
Source text: (§1) Seeds of plant species selected from corn (Zea mays), soybean (Glycine max), velvetleaf (Abutilon theophrasti), lambsquarters (Chenopodium album), wild poinsettia (Euphorbia heterophylla), pigweed, palmer (palmer pigweed, Amaranthus palmeri), common waterhemp (Amaranthus rudis), surinam grass (Brachiaria decumbens), large crabgrass (Digitaria sanguinalis), crabgrass, Brazil (Brazilian crabgrass, Digitaria horizontalis), fall panicum (Panicum dichotomiflorum), giant foxtail (Setaria faberii), green foxtail (Setaria viridis), goosegrass (Eleusine indica), johnsongrass (Sorghum halepense), common ragweed (Ambrosia elation), barnyardgrass (Echinochloa crus-galli), southern sandbur (Cenchrus echinatus), arrowleaf sida (Sida rhombifolia), Italian ryegrass (Lolium multiflorum), dayflower, VA (Virginia (VA) dayflower, Commelina virginica), field bindweed (Convolvulus arvensis), cocklebur (common cocklebur, Xanthium strumarium), morningglory (Ipomoea coccinea), nightshade (eastern black nightshade, Solanum ptycanthum), kochia (Kochia scoparia), yellow nutsedge (Cyperus esculentus), and hairy beggarticks (Bidens pilosa), were planted into a silt loam soil and treated preemergence with test chemicals formulated in a non-phytotoxic solvent mixture which included a surfactant.
(§2) At the same time, plants from these crop and weed species and also horseweed (Canada horseweed, Conyza canadensis), smartweed (ladysthumb smartweed, Polygonum persicaria), waterhemp_RES1, (ALS & Triazine resistant common waterhemp, Amaranthus rudis), and waterhemp_RES2, (ALS & HPPD resistant common waterhemp, Amaranthus rudis) were treated with postemergence applications of test chemicals formulated in the same manner. Plants ranged in height from 2 to 18 cm for postemergence treatments (1- to 4-leaf stage). Treated plants and controls were maintained in a greenhouse for 14 to 21 days, after which time all species were compared to controls and visually evaluated. Plant response ratings, summarized in Table F, are based on a scale of 0 to 100 where 0 is no effect and 100 is complete control. A dash (-) response means no test result.

[3] = system: nightshade; assay: Test F preemergence; assay type: in vivo, Solanum ptycanthum
Source text: as §1, §2

[4] = system: common ragweed; assay: Test F preemergence; assay type: in vivo, Ambrosia elation
Source text: as §1, §2

[5] = system: soybean; assay: Test F preemergence; assay type: in vivo, Glycine max
Source text: as §1, §2

[6] = 125 g ai/ha, visual injury, 0 to 100 scale, approx. 10 days
[7] = 500 g ai/ha, visual injury after approx. 10 days, 0 to 100 scale (0 no effect, 100 complete control)
[8] = Preemergence, 62 g ai/ha, scale 0 to 100
[9] = Preemergence, 125 g ai/ha, scale 0 to 100
[10] = Preemergence, 250 g ai/ha, scale 0 to 100
[11] = preemergence, 16 g ai/ha, scale 0 to 100, 100 is complete control
[12] = Preemergence, 16 g ai/ha, scale 0 to 100

CCc1cc(C(=O)NOC(C)C)nn1Cc1ccnc(OC(F)F)c1 [Compound 126]
Italian Ryegrass plant response rating [1, 6]: 90 | Italian Ryegrass plant response rating [1, 7]: 100

CCCc1cc(C(=O)NCC(F)(F)F)nn1Cc1ccnc(OC(F)F)c1 [Compound 127]
Italian Ryegrass plant response rating [1, 6]: 40 | Italian Ryegrass plant response rating [1, 7]: 90

CCOc1cc(C(=O)NCC(F)(F)F)nn1Cc1ccnc(OC(F)F)c1 [Compound 128]
Italian Ryegrass plant response rating [1, 6]: 30 | Italian Ryegrass plant response rating [1, 7]: 100

CCCNC(=O)c1cc(OCC)n(Cc2ccnc(OC(F)F)c2)n1 [Compound 136]
Italian Ryegrass plant response rating [1, 6]: 30 | Italian Ryegrass plant response rating [1, 7]: 100

CCCc1cc(C(=O)NC(C)C)nn1Cc1cc(C(F)(F)F)nn1C [Compound 201]
Plant response rating, Surinam Grass [2, 8]: 0 | Plant response rating, Surinam Grass [2, 9]: 35 | Plant response rating, Surinam Grass [2, 10]: 65 | Plant response rating, Surinam Grass [2, 11]: 0 | Plant response rating, Nightshade [3, 12]: 10 | Plant response rating, Nightshade [3, 8]: 80 | Plant response rating, Nightshade [3, 9]: 95 | Plant response rating, Nightshade [3, 10]: 98 | Plant response rating, Nightshade [3, 11]: 0 | Plant response rating, Common Ragweed [4, 12]: 0 | Plant response rating, Common Ragweed [4, 8]: 0 | Plant response rating, Common Ragweed [4, 9]: 35 | Plant response rating, Common Ragweed [4, 10]: 65 | Plant response rating, Common Ragweed [4, 11]: 0 | Plant response rating, Soybean [5, 12]: 0 | Plant response rating, Soybean [5, 9]: 40 | Plant response rating, Soybean [5, 10]: 40 | Plant response rating, Soybean [5, 11]: 0

CCCc1cc(C(=O)NC2CC2)nn1Cc1ccnc(OC(F)F)c1 [Compound 205]
Italian Ryegrass plant response rating (0 to 100 scale) ([1]; 125 g ai/ha, visual injury approx. 10 days after treatment): 50 | Italian Ryegrass plant response rating [1, 7]: 100

CCc1cc(C(=O)NCC(F)(F)F)nn1Cc1ccnc(Br)c1 [Compound 224]
Plant response rating, Surinam Grass [2, 8]: 70 | Plant response rating, Surinam Grass [2, 9]: 50 | Plant response rating, Surinam Grass [2, 10]: 65 | Plant response rating, Nightshade [3, 9]: 0 | Plant response rating, Nightshade [3, 10]: 95 | Plant response rating, Common Ragweed [4, 8]: 0 | Plant response rating, Common Ragweed [4, 9]: 0 | Plant response rating, Common Ragweed [4, 10]: 60 | Plant response rating, Soybean [5, 8]: 25 | Plant response rating, Soybean [5, 9]: 20 | Plant response rating, Soybean [5, 10]: 50
